Source: paper PMC11150212, “Synthesis and evaluation of [^18F]FBNAF, a STAT3-targeting probe, for PET imaging of tumor microenvironment” (EJNMMI Radiopharmacy and Chemistry, 2024)
Values joined by “and” are separate entries in the source; they are usually repeats but may differ in a detail not shown here. Equal values may be shown once. Read-outs that look alike come from different tables or passages of the source.

How the values were obtained:
A549 tumor-bearing mice [1] = tested on: A549 tumor-bearing mice; design: method as in Zhang et al. [2012]; settings: repeated intravenous administration, ref Zhang et al. [2012]; cited from earlier work
SH2 domain of STAT3 = settings: cited from earlier work
[2] = tested on: STAT3 phosphorylation (Tyr705) in A549 cells; test: Phosphorylation inhibitory assay (western blotting); type: cell-based, Human; settings: 24 h
Method: Several concentrations of FBNAF (final conc. 0, 0.2, 0.5 1.0, and 2.0 μM in medium containing 1% DMSO) were added to A549 cells, followed by incubation at 37℃ for 24 h. After harvesting, cells were lysed with Passive Lysis Buffer (Promega, Madison, WI, USA) containing 1% protease inhibitor and 1% phosphatase inhibitor. Cell protein was quantified using a Pierce BCA Protein Assay Kit (Thermo Scientific, Waltham, MA, USA). The samples (15 μg/lane) were loaded and separated on an sodium dodecyl sulfate (SDS) polyacrylamide gel. Western blotting was performed using primary antibodies against STAT3 (1:2000 dilution, #4904, Cell Signaling Technology, Danvers, MA, USA), pSTAT3(Tyr705) (1:2000 dilution, #9145, Cell Signaling Technology), and β-actin (1:5000 dilution, NB600-503, Novus Biologicals, Centennial, CO, USA), as well as anti-rabbit IgG HRP-conjugated antibody (1:3000 dilution, HAF008, R&D Systems, Minneapolis, MN, USA) as a secondary antibody. The western blot bands were detected using Chemi-Lumi One L (Nacalai Tesque) and analyzed using an Amersham imager 600 (Cytiva, Tokyo, Japan). To detect pSTAT3, Chemi-Lumi One Ultra (Nacalai Tesque) was used.

HCT116 = tested on: HCT116; design: method as in Wang et al. [2020]; settings: ref Wang et al. [2020]; cited from earlier work
RKO = tested on: RKO; design: method as in Wang et al. [2020]; settings: ref Wang et al. [2020]; cited from earlier work
STAT3 = molecular target: T1, STAT3 (Homo sapiens, UniProt P40763); test: Ex vivo autoradiography and immunohistochemistry; type: in vivo, mouse; settings: tumor sections, 30 min postinjection, A549 tumor-bearing mice
T1 construct: sections prepared from the excised tumors of A549 tumor-bearing mice at 30 min postinjection of [^18F]FBNAF; from tissue; host or cells: A549 (human lung cancer) xenograft tumour excised from tumour-bearing mice
Method: Tumors were excised 30 min after the intravenous injection of [^18F]FBNAF (3–6 MBq, 100 μL) and immediately frozen in OCT compound. The frozen tumor was cut into 10 µm thick sections using Cryotome and contacted with a phosphor screen in a cassette overnight. The screen was scanned using an Amersham Typhoon scanner (Cytiva), and the resulting images were analyzed using Image-Quant TL (Cytiva).
For immunohistochemistry, adjacent sections were fixed with cold acetone (− 20℃) for 10 min. After blocking using Blocking One Histo (Nacalai Tesque), the sections were incubated with antibodies against STAT3 (1:200 dilution, #4904) or pSTAT3(Tyr705) (1:200 dilution, #9145) overnight at 4℃. After a rinse, anti-rabbit IgG(H + L) CF555 (1:1000 dilution, SAB4600068, Sigma-Aldrich, St. Louis, MO, USA) was added, followed by incubation for 30 min at room temperature. Nuclear staining was performed by incubation with Hoechst 33,342 (Nacalai Tesque) for 10 min.

A549 tumor-bearing mice [3] = test: In vivo biodistribution; design: species or system BALB/c nude mice
Method: (§1) BALB/c nude mice (male, 4 weeks old) and ddY mice (male, 6 weeks old) were purchased from Japan SLC (Shizuoka, Japan) and given free access to food and water. All animal experiments were conducted according to Osaka Medical and Pharmaceutical University guidelines, and the study protocol was approved by the Institutional Experimental Animal Committee (Permission Number: 22-76, AP23-004). To prepare tumor-bearing mice, A549 cells (4 × 10^6 cells/mouse) suspended in culture medium (100 μL) were implanted subcutaneously into the right hind leg of each mouse. Animals with a tumor size of approximately 100 mm^3 (length × width^2 × 1/2) after inoculation with A549 cells were used for in vivo and ex vivo experiments.
(§2) [^18F]FBNAF (115-343 kBq, 100 μL) in 5% DMSO/PBS (−) was intravenously injected into mice. The animals were euthanized under isoflurane anesthesia at 10, 30, 60, and 120 min postinjection, and the tissues of interest were excised and weighed. Radioactivity was measured using a γ-counter. The accumulation of radioactivity was expressed as the percent injected dose per gram tissue (%ID/g) for all tissues excluding the stomach, in which accumulation was expressed as the percent injected dose per organ (%ID). For the blocking study, [^18F]FBNAF (115-360 kBq, 100 μL) in 5% DMSO/PBS (−) was intravenously coinjected with BP-1-102 (3.0 mg/kg, Selleck, Shanghai, China) into mice, and after 30 min, the accumulated radioactivity in the tumor, blood, and muscle were measured. Radioactivity was decay-corrected at the time of administration.

A549 tumor-bearing mice [4] = test: In vivo blocking study with coinjected BP-1-102; design: species or system BALB/c nude mice
Method: as §1, §2

[5] = In vitro stability in mouse plasma; type: in vitro ADME, ddY mouse; settings: 3 h incubation in mouse plasma, 37℃, normal-phase TLC
Method: [^18F]FBNAF (152 kBq, 20 μL) in 5% DMSO/PBS ( −) was incubated with ddY mouse plasma (180 μL) at 37℃ for 10, 60, 120, or 180 min. After protein removal using CH3CN (400 μL), the supernatant was filtered through a Cosmonice Filter W and analyzed by TLC (Rf = 0.4, ethyl acetate:hexane = 1:1), followed by radioactivity counting using a γ-counter (2480 Wizard^2, PerkinElmer Japan, Kanagawa, Japan; n = 3). The intact rate (%) was represented as the intact form relative to the total radioactivity.

[6] = blocking group, coinjection of BP-1-102 3.0 mg/kg, 30 min
[7] = control group without BP-1-102, 30 min

T1 sequence (P40763 whole entry): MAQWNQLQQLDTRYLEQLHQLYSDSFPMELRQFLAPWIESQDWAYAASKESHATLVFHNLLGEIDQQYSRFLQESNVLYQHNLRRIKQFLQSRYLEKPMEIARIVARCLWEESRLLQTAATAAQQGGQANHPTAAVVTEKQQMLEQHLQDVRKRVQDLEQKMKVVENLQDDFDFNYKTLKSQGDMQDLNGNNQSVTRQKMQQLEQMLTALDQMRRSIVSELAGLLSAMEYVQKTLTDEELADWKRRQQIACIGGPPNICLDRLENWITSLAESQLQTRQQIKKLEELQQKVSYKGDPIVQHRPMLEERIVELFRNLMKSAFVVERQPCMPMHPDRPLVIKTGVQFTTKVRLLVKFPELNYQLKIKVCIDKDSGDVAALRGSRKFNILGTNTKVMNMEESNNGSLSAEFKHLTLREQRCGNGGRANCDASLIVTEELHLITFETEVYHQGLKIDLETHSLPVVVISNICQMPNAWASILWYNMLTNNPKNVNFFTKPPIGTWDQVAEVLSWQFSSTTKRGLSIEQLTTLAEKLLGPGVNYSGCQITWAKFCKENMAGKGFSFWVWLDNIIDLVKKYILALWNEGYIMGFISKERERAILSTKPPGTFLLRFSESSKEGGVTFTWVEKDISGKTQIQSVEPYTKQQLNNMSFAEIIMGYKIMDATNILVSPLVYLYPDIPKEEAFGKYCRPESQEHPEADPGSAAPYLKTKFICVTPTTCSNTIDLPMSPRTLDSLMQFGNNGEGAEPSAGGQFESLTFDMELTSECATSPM

CN(CC(=O)N(Cc1ccc(C2CCCCC2)cc1)c1ccc(C(=O)O)c(O)c1)S(=O)(=O)c1c(F)c(F)c(F)c(F)c1F [BP-1–102]
effect on tumor growth (A549 tumor-bearing mice [1]): inhibited tumor growth
Kd (SH2 domain of STAT3; ref Zhang et al. [2012]): 0.504 µM

CC1CC2=C(O1)c1ccc(OCc3ccc(F)cc3)cc1C(=O)C2=O (stereo not shown) [FBNAF, 7-(4-Fluoro-benzyloxy)-2-methyl-2,3-dihydro-naphtho[1,2-b]furan-4,5-dione]
change in total STAT3 expression ([2]; 0–2 μM): no significant change
inhibition of pSTAT3 expression ([2]; 0.5 μM): 50%
inhibition of pSTAT3 expression ([2]; 1.0 μM): 60%

Cc1ccc(COc2ccc3c(c2)C(=O)C(=O)C2=C3OC(C)C2)cc1 (stereo not shown) [LYW-6]
IC50 (HCT116): 4.1 µM
IC50 (RKO): 3.8 µM
Kd (SH2 domain of STAT3; ref Wang et al. [2020]): 6.6 µM

CC1CC2=C(O1)c1ccc(OCc3ccc([18F])cc3)cc1C(=O)C2=O (stereo not shown) [[^18F]FBNAF, 7-(4-[^18F]Fluoro-benzyloxy)-2-methyl-2,3-dihydro-naphtho[1,2-b]furan-4,5-dione]
intratumoral radioactivity distribution versus STAT3 expression (STAT3): almost corresponded to the STAT3 expression profile
Blood radioactivity (A549 tumor-bearing mice [3]; 10 min after i.v. injection): 1.0 ± 0.2 %ID/g
Bone radioactivity (A549 tumor-bearing mice [3]; 10 min after i.v. injection): 2.1 ± 0.2 %ID/g
Brain radioactivity (A549 tumor-bearing mice [3]; 10 min after i.v. injection): 1.9 ± 1.1 %ID/g
Colon radioactivity (A549 tumor-bearing mice [3]; 10 min after i.v. injection): 0.8 ± 0.4 %ID/g
Heart radioactivity (A549 tumor-bearing mice [3]; 10 min after i.v. injection): 2.3 ± 0.8 %ID/g
Kidney radioactivity (A549 tumor-bearing mice [3]; 10 min after i.v. injection): 19.5 ± 7.7 %ID/g
Liver radioactivity (A549 tumor-bearing mice [3]; 10 min after i.v. injection): 10.8 ± 2.8 %ID/g
Lung radioactivity (A549 tumor-bearing mice [3]; 10 min after i.v. injection): 4.4 ± 1.0 %ID/g
Muscle radioactivity (A549 tumor-bearing mice [3]; 10 min after i.v. injection): 2.1 ± 0.8 %ID/g
Pancreas radioactivity (A549 tumor-bearing mice [3]; 10 min after i.v. injection): 6.3 ± 2.9 %ID/g
Small intestine radioactivity (A549 tumor-bearing mice [3]; 10 min after i.v. injection): 11.6 ± 5.5 %ID/g
Spleen radioactivity (A549 tumor-bearing mice [3]; 10 min after i.v. injection): 2.7 ± 0.7 %ID/g
Stomach radioactivity (A549 tumor-bearing mice [3]; 10 min after i.v. injection): 0.6 ± 0.3 %ID
Tumor radioactivity (A549 tumor-bearing mice [3]; 10 min after i.v. injection): 1.5 ± 0.3 %ID/g
Tumor/blood ratio (A549 tumor-bearing mice [3]; 10 min after i.v. injection): 1.6 ± 0.3
Tumor/muscle ratio (A549 tumor-bearing mice [3]; 10 min after i.v. injection): 0.8 ± 0.1
Blood radioactivity (A549 tumor-bearing mice [3]; 30 min after i.v. injection): 1.0 ± 0.3 %ID/g
Bone radioactivity (A549 tumor-bearing mice [3]; 30 min after i.v. injection): 2.3 ± 0.6 %ID/g
Brain radioactivity (A549 tumor-bearing mice [3]; 30 min after i.v. injection): 0.8 ± 0.1 %ID/g
Colon radioactivity (A549 tumor-bearing mice [3]; 30 min after i.v. injection): 0.7 ± 0.4 %ID/g
Heart radioactivity (A549 tumor-bearing mice [3]; 30 min after i.v. injection): 1.5 ± 0.7 %ID/g
Kidney radioactivity (A549 tumor-bearing mice [3]; 30 min after i.v. injection): 4.5 ± 1.2 %ID/g
Liver radioactivity (A549 tumor-bearing mice [3]; 30 min after i.v. injection): 5.3 ± 1.9 %ID/g
Lung radioactivity (A549 tumor-bearing mice [3]; 30 min after i.v. injection): 3.3 ± 2.0 %ID/g
Muscle radioactivity (A549 tumor-bearing mice [3]; 30 min after i.v. injection): 0.6 ± 0.1 %ID/g
Pancreas radioactivity (A549 tumor-bearing mice [3]; 30 min after i.v. injection): 1.1 ± 0.3 %ID/g
Small intestine radioactivity (A549 tumor-bearing mice [3]; 30 min after i.v. injection): 38.3 ± 5.7 %ID/g
Spleen radioactivity (A549 tumor-bearing mice [3]; 30 min after i.v. injection): 1.6 ± 0.5 %ID/g
Stomach radioactivity (A549 tumor-bearing mice [3]; 30 min after i.v. injection): 3.6 ± 2.8 %ID
Tumor radioactivity (A549 tumor-bearing mice [3]; 30 min after i.v. injection): 1.7 ± 0.4 %ID/g
Tumor/blood ratio (A549 tumor-bearing mice [3]; 30 min after i.v. injection): 2.0 ± 1.0
Blood radioactivity (A549 tumor-bearing mice [3]; 60 min after i.v. injection): 0.5 ± 0.1 %ID/g
Bone radioactivity (A549 tumor-bearing mice [3]; 60 min after i.v. injection): 1.5 ± 0.5 %ID/g
Brain radioactivity (A549 tumor-bearing mice [3]; 60 min after i.v. injection): 0.5 ± 0.0 %ID/g
Colon radioactivity (A549 tumor-bearing mice [3]; 60 min after i.v. injection): 11.0 ± 3.5 %ID/g
Heart radioactivity (A549 tumor-bearing mice [3]; 60 min after i.v. injection): 0.7 ± 0.1 %ID/g
Kidney radioactivity (A549 tumor-bearing mice [3]; 60 min after i.v. injection): 0.9 ± 0.3 %ID/g
Liver radioactivity (A549 tumor-bearing mice [3]; 60 min after i.v. injection): 2.2 ± 0.3 %ID/g
Lung radioactivity (A549 tumor-bearing mice [3]; 60 min after i.v. injection): 1.2 ± 0.0 %ID/g
Muscle radioactivity (A549 tumor-bearing mice [3]; 60 min after i.v. injection): 0.5 ± 0.2 %ID/g
Pancreas radioactivity (A549 tumor-bearing mice [3]; 60 min after i.v. injection): 0.5 ± 0.1 %ID/g
Small intestine radioactivity (A549 tumor-bearing mice [3]; 60 min after i.v. injection): 48.4 ± 7.4 %ID/g
Spleen radioactivity (A549 tumor-bearing mice [3]; 60 min after i.v. injection): 0.9 ± 0.1 %ID/g
Stomach radioactivity (A549 tumor-bearing mice [3]; 60 min after i.v. injection): 1.4 ± 1.4 %ID
Tumor radioactivity (A549 tumor-bearing mice [3]; 60 min after i.v. injection): 0.9 ± 0.3 %ID/g
Tumor/blood ratio (A549 tumor-bearing mice [3]; 60 min after i.v. injection): 2.0 ± 0.8
Tumor/muscle ratio (A549 tumor-bearing mice [3]; 60 min after i.v. injection): 2.4 ± 1.2
Blood radioactivity (A549 tumor-bearing mice [3]; 120 min after i.v. injection): 0.3 ± 0.0 %ID/g
Bone radioactivity (A549 tumor-bearing mice [3]; 120 min after i.v. injection): 1.9 ± 0.2 %ID/g
Brain radioactivity (A549 tumor-bearing mice [3]; 120 min after i.v. injection): 0.4 ± 0.1 %ID/g
Colon radioactivity (A549 tumor-bearing mice [3]; 120 min after i.v. injection): 44.4 ± 16.3 %ID/g
Heart radioactivity (A549 tumor-bearing mice [3]; 120 min after i.v. injection): 0.7 ± 0.2 %ID/g
Kidney radioactivity (A549 tumor-bearing mice [3]; 120 min after i.v. injection): 0.5 ± 0.2 %ID/g
Liver radioactivity (A549 tumor-bearing mice [3]; 120 min after i.v. injection): 1.6 ± 0.8 %ID/g
Lung radioactivity (A549 tumor-bearing mice [3]; 120 min after i.v. injection): 1.0 ± 0.3 %ID/g
Muscle radioactivity (A549 tumor-bearing mice [3]; 120 min after i.v. injection): 0.5 ± 0.1 %ID/g
Pancreas radioactivity (A549 tumor-bearing mice [3]; 120 min after i.v. injection): 0.6 ± 0.1 %ID/g
Small intestine radioactivity (A549 tumor-bearing mice [3]; 120 min after i.v. injection): 17.8 ± 2.2 %ID/g
Spleen radioactivity (A549 tumor-bearing mice [3]; 120 min after i.v. injection): 0.8 ± 0.3 %ID/g
Stomach radioactivity (A549 tumor-bearing mice [3]; 120 min after i.v. injection): 0.8 ± 1.0 %ID
Tumor radioactivity (A549 tumor-bearing mice [3]; 120 min after i.v. injection): 0.9 ± 0.3 %ID/g
Tumor/blood ratio (A549 tumor-bearing mice [3]; 120 min after i.v. injection): 2.6 and 2.6 ± 0.8
Tumor/muscle ratio (A549 tumor-bearing mice [3]; 120 min after i.v. injection): 1.9 ± 0.9
tumor-to-blood ratio (A549 tumor-bearing mice [4]; [6]): 1.1 ± 0.3
tumor-to-muscle ratio (A549 tumor-bearing mice [4]; [6]): 2.3 ± 1.2
Tumor radioactivity (A549 tumor-bearing mice [4]; blocking group, coinjection of BP-1-102 3.0 mg/kg, 30 min after administration): 1.0 ± 0.3 % ID/g
radioactivity in blood and muscle, effect of coinjection of the inhibitor (A549 tumor-bearing mice [4]; coinjection of BP-1-102 3.0 mg/kg, 30 min): negligibly affected
tumor-to-blood ratio (A549 tumor-bearing mice [4]; [7]): 2.0 ± 1.0
tumor-to-muscle ratio (A549 tumor-bearing mice [4]; [7]): 2.6 ± 0.3
radioactivity in an intact form (intact rate) [5]: more than 85%
